From patent US9629830B2, “EphA4 inhibitors as neuroprotective agents” (The Hong Kong University of Science and Technology, priority 2013, dated 2017) come the findings set out here.

Each structure is given as a SMILES string. “Also recorded” adds a separate entry of the source.

One data set has as its target T1, EphA4 (Rattus norvegicus, UniProt D3ZZK3).
T1 construct: endogenous in cells; host or cells: primary rat cortical neurons (A5), primary rat hippocampal neurons (A7)
Put plainly: ephrin-A1-induced EphA4 tyrosine phosphorylation in cortical neurons (immunoprecipitation, western blot). In kind it is cell-based. The note with it: cortical neurons pretreated with compound, then ephrin-A1; western blot for P-Tyr. As to the method: Primary cortical and hippocampal neurons were prepared from embryonic day 18-19 rat embryos as described previously^24. Briefly, cortical neurons (6×10^6 per plate) were plated on 100-mm culture dishes coated with poly-D-lysine (12.5 μg/mL; Sigma). Rat hippocampal neurons were seeded on 18-mm coverslips coated with poly-D-lysine (50 μg/mL) at a density of 0.5×10^5/18-mm coverslip for immunocytochemical analysis, 0.1×10^5/18-mm coverslip for growth cone collapse assay, or 1×10^5 or 1.5×10^5/18-mm coverslip for mEPSC recording. Neurons were fed Neurobasal medium (Invitrogen) supplemented with 2% B27 (Invitrogen). Acute brain slices were prepared from P15-P17 Sprague-Dawley rats. Briefly, the rats were rapidly decapitated, and their brains were immersed in ice-cold artificial cerebrospinal fluid (ACSF). The hippocampus was dissected, and 300-μm-thick slices were prepared using a vibratome (Lieca). The slices were then transferred into an incubating chamber containing circulating ACSF equilibrated with 95% O2+5% CO2 and held at room temperature for at least 2 h for recovery prior to experiments^65.
For the immunoprecipitation assay, lysates were immunoprecipitated with the corresponding antibody for 2 h at 4° C. followed by incubation with protein G Sepharose for 1 h at 4° C.^24. […] EphA4 tyrosine phosphorylation was detected by western blot analysis using 4G10 antibody. […]
(In general: In western blotting, separated proteins are transferred to a membrane and probed.)

Data set [1] in a line: In vitro stability assay in mouse serum (UPLC-MS/MS). It is filed as in vitro ADME. The note with it: 3 μM, over the 360-min incubation period.
In a further data set the test system is NMDA receptors. Put plainly: NMDA current in hippocampal neurons. It is filed as cell-based. Particulars: data not shown.

T1 sequence (D3ZZK3 20-986): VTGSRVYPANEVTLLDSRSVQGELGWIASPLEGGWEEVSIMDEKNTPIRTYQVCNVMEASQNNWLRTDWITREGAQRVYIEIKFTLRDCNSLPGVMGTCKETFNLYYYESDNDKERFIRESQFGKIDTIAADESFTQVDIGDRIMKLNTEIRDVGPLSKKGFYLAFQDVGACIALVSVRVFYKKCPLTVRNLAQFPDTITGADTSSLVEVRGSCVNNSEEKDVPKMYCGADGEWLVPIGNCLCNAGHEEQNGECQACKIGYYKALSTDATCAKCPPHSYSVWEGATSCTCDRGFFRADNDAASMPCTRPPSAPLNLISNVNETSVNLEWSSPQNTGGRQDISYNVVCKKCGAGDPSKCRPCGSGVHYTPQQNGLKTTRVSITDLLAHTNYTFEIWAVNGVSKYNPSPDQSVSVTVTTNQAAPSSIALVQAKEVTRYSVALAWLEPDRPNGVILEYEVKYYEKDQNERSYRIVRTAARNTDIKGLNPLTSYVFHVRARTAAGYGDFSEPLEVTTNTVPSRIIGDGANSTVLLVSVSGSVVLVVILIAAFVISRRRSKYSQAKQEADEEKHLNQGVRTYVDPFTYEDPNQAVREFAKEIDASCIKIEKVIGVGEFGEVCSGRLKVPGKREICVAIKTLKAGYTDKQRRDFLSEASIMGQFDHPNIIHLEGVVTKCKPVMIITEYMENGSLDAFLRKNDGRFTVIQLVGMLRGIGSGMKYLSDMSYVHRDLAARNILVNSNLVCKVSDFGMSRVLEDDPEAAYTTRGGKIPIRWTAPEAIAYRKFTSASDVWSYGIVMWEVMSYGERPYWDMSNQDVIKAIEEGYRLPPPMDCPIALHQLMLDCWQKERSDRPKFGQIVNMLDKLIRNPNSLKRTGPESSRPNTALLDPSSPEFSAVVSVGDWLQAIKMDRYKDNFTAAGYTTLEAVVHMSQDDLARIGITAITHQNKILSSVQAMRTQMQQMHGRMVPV

With `CC[C@H]1CN2CC[C@]3(C(=O)Nc4ccccc43)[C@@H]2C[C@@H]1/C(=C\OC)C(=O)OC` [Rhy, methyl (7β,16E,20α)-16-(methoxymethylene)-2-oxocorynoxan-17-oate], the “ephrin-A1-induced EphA4 tyrosine phosphorylation” value at EphA4 was “reduced the specific phosphorylation; also recorded: inhibited Eph-ephrin-A interaction and EphA4 tyrosine phosphorylation”. Also, the “reduction of Rhy concentration in serum” value in data set [1] is listed as roughly 20%. The “inhibition of NMDA current in hippocampal neurons” value in the data set on NMDA receptors is “unable to inhibit NMDA current”.
